Measured values taken from BindingDB's records for doi:10.7270/Q22V2DK6 (The Scripps Research Institute Molecular Screening Center, 2010).

Molecular target: T1, Caspase-7 (Homo sapiens, UniProt P55210)
T1 sequence (P55210 whole entry): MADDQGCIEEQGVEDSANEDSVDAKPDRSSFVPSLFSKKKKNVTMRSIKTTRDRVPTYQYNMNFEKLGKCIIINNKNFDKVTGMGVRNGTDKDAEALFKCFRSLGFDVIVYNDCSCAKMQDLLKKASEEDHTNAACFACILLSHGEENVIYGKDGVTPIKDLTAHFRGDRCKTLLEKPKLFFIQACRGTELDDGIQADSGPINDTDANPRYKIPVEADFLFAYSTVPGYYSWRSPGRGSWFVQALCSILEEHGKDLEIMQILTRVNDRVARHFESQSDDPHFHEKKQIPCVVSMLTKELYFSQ
Assay: activation of caspase-7 zymogen – biochemical, absorbance, counter-screen for procaspase-3 activator project, dose response (AID 489013)

`O=C(CC1=NC2(CCCC2)Cc2ccccc21)C(=O)NN=Cc1ccccc1O` [SMR000219463] gave an EC50 of over 85.3 µM.

`O=c1c2c(-c3ccccc3)[nH]n(-c3ccccc3)c-2c(O)n1-c1ccccc1` [SMR000269383] gave an EC50 of over 85.3 µM.
